# Test results taken from PubChem BioAssay (NCI).
#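 Five compound concentrations were applied to cells in 96-well plates for 48 hours; endpoints were derived by simple linear interpolation of the resulting dose-response curve. GI50 marks 50% less growth. The concentration for full growth arrest is given as TGI.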
# Tests used:
# Assay in all cases: DTP human tumour cell line panel, 48 h
# SF-268 CNS = test system: SF-268 CNS
# SF-295 CNS = test system: SF-295 CNS
# M14 melanoma = test system: M14 melanoma
# 786-0 renal = test system: 786-0 renal
# NCI-H226 lung = test system: NCI-H226 lung
# NCI-H522 lung = test system: NCI-H522 lung
# BT-549 breast = test system: BT-549 breast
# HS 578T breast = test system: HS 578T breast
# HL-60(TB) leukemia = test system: HL-60(TB) leukemia
# TK-10 renal = test system: TK-10 renal
# UACC-62 melanoma = test system: UACC-62 melanoma
# DU-145 prostate = test system: DU-145 prostate
# OVCAR-3 ovarian = test system: OVCAR-3 ovarian
# SNB-19 CNS = test system: SNB-19 CNS
# SK-MEL-2 melanoma = test system: SK-MEL-2 melanoma
# RXF 393 renal = test system: RXF 393 renal
# SF-539 CNS = test system: SF-539 CNS
# CAKI-1 renal = test system: CAKI-1 renal
# CCRF-CEM leukemia = test system: CCRF-CEM leukemia
# HT29 colon = test system: HT29 colon
# T-47D breast = test system: T-47D breast
# OVCAR-8 ovarian = test system: OVCAR-8 ovarian
# PC-3 prostate = test system: PC-3 prostate
# A549 NSCLC = test system: A549 NSCLC
# LOX IMVI melanoma = test system: LOX IMVI melanoma
# A498 renal = test system: A498 renal
# SR leukemia = test system: SR leukemia
# SW-620 colon = test system: SW-620 colon
# UACC-257 melanoma = test system: UACC-257 melanoma
# NCI-H23 lung = test system: NCI-H23 lung
# HOP-92 NSCLC = test system: HOP-92 NSCLC
# SK-OV-3 ovarian = test system: SK-OV-3 ovarian
# MCF7 breast = test system: MCF7 breast
# HCC-2998 colon = test system: HCC-2998 colon
# NCI-H460 lung = test system: NCI-H460 lung
# UO-31 renal = test system: UO-31 renal
# U251 CNS = test system: U251 CNS
# MDA-MB-231 breast = test system: MDA-MB-231 breast
# OVCAR-4 ovarian = test system: OVCAR-4 ovarian
# EKVX NSCLC = test system: EKVX NSCLC
# SN12C renal = test system: SN12C renal
# COLO 205 colon = test system: COLO 205 colon
# OVCAR-5 ovarian = test system: OVCAR-5 ovarian
# ACHN renal = test system: ACHN renal
# RPMI-8226 leukemia = test system: RPMI-8226 leukemia
# IGROV1 ovarian = test system: IGROV1 ovarian
# NCI/ADR-RES ovarian = test system: NCI/ADR-RES ovarian
# HOP-62 NSCLC = test system: HOP-62 NSCLC
# K-562 leukemia = test system: K-562 leukemia
# MALME-3M melanoma = test system: MALME-3M melanoma
# SK-MEL-5 melanoma = test system: SK-MEL-5 melanoma
# SNB-75 CNS = test system: SNB-75 CNS
smiles,measurement,setting,value
C=C(C)[C@@H]1CC[C@]2(CO)CC[C@]3(C)[C@H](CC[C@@H]4[C@@]5(C)C=C(C#N)C(=O)C(C)(C)[C@@H]5CC[C@]43C)[C@@H]12,GI50,SF-268 CNS,1460 nM
same,TGI,SF-268 CNS,4780 nM
same,GI50,SF-295 CNS,1730 nM
same,TGI,SF-295 CNS,3960 nM
same,GI50,M14 melanoma,1550 nM
same,TGI,M14 melanoma,3780 nM
same,GI50,786-0 renal,1920 nM
same,TGI,786-0 renal,3980 nM
same,GI50,NCI-H226 lung,2390 nM
same,TGI,NCI-H226 lung,5490 nM
same,GI50,NCI-H522 lung,1900 nM
same,TGI,NCI-H522 lung,6580 nM
same,GI50,BT-549 breast,2130 nM
same,TGI,BT-549 breast,6180 nM
same,GI50,HS 578T breast,1890 nM
same,TGI,HS 578T breast,6840 nM
same,GI50,HL-60(TB) leukemia,471 nM
same,TGI,HL-60(TB) leukemia,5500 nM
same,GI50,TK-10 renal,2090 nM
same,TGI,TK-10 renal,6060 nM
same,GI50,UACC-62 melanoma,720 nM
same,TGI,UACC-62 melanoma,2440 nM
same,GI50,DU-145 prostate,1970 nM
same,TGI,DU-145 prostate,5750 nM
same,GI50,OVCAR-3 ovarian,1270 nM
same,TGI,OVCAR-3 ovarian,2730 nM
same,GI50,SNB-19 CNS,1580 nM
same,TGI,SNB-19 CNS,4080 nM
same,GI50,SK-MEL-2 melanoma,1910 nM
same,TGI,SK-MEL-2 melanoma,4590 nM
same,GI50,RXF 393 renal,1130 nM
same,TGI,RXF 393 renal,2760 nM
same,GI50,SF-539 CNS,2610 nM
same,TGI,SF-539 CNS,8340 nM
same,GI50,CAKI-1 renal,2820 nM
same,TGI,CAKI-1 renal,14400 nM
same,GI50,CCRF-CEM leukemia,2110 nM
same,TGI,CCRF-CEM leukemia,8700 nM
same,GI50,HT29 colon,1160 nM
same,TGI,HT29 colon,4760 nM
same,GI50,T-47D breast,1120 nM
same,TGI,T-47D breast,5790 nM
same,GI50,OVCAR-8 ovarian,1880 nM
same,TGI,OVCAR-8 ovarian,5240 nM
same,GI50,PC-3 prostate,1570 nM
same,TGI,PC-3 prostate,5420 nM
same,GI50,A549 NSCLC,1560 nM
same,TGI,A549 NSCLC,3500 nM
same,GI50,LOX IMVI melanoma,1180 nM
same,TGI,LOX IMVI melanoma,2680 nM
same,GI50,A498 renal,1370 nM
same,TGI,A498 renal,2990 nM
same,GI50,SR leukemia,1530 nM
same,TGI,SR leukemia,6010 nM
same,GI50,SW-620 colon,2240 nM
same,TGI,SW-620 colon,5120 nM
same,GI50,UACC-257 melanoma,1290 nM
same,TGI,UACC-257 melanoma,3040 nM
same,GI50,NCI-H23 lung,2000 nM
same,TGI,NCI-H23 lung,6050 nM
same,GI50,HOP-92 NSCLC,2220 nM
same,TGI,HOP-92 NSCLC,5150 nM
same,GI50,SK-OV-3 ovarian,2720 nM
same,TGI,SK-OV-3 ovarian,6120 nM
same,GI50,MCF7 breast,340 nM
same,TGI,MCF7 breast,7660 nM
same,GI50,HCC-2998 colon,2030 nM
same,TGI,HCC-2998 colon,4220 nM
same,GI50,NCI-H460 lung,1370 nM
same,TGI,NCI-H460 lung,5170 nM
same,GI50,UO-31 renal,1050 nM
same,TGI,UO-31 renal,2770 nM
same,GI50,U251 CNS,1360 nM
same,TGI,U251 CNS,2800 nM
same,GI50,MDA-MB-231 breast,1560 nM
same,TGI,MDA-MB-231 breast,4820 nM
same,GI50,OVCAR-4 ovarian,769 nM
same,TGI,OVCAR-4 ovarian,5110 nM
same,GI50,EKVX NSCLC,1630 nM
same,TGI,EKVX NSCLC,4610 nM
same,GI50,SN12C renal,1170 nM
same,TGI,SN12C renal,4270 nM
same,GI50,COLO 205 colon,1380 nM
same,TGI,COLO 205 colon,2720 nM
same,GI50,OVCAR-5 ovarian,2130 nM
same,TGI,OVCAR-5 ovarian,5750 nM
same,GI50,ACHN renal,1720 nM
same,TGI,ACHN renal,4770 nM
same,GI50,RPMI-8226 leukemia,809 nM
same,TGI,RPMI-8226 leukemia,3860 nM
same,GI50,IGROV1 ovarian,684 nM
same,TGI,IGROV1 ovarian,4650 nM
same,GI50,NCI/ADR-RES ovarian,1810 nM
same,TGI,NCI/ADR-RES ovarian,5040 nM
same,GI50,HOP-62 NSCLC,1740 nM
same,TGI,HOP-62 NSCLC,3850 nM
same,GI50,K-562 leukemia,2200 nM
same,TGI,K-562 leukemia,> 100000 nM
same,GI50,MALME-3M melanoma,1400 nM
same,TGI,MALME-3M melanoma,3820 nM
same,GI50,SK-MEL-5 melanoma,1200 nM
same,TGI,SK-MEL-5 melanoma,2520 nM
same,GI50,SNB-75 CNS,1040 nM
same,TGI,SNB-75 CNS,3390 nM
